PMC4109680, “Identification and Preclinical Pharmacology of the γ-Secretase Modulator BMS-869780” (International Journal of Alzheimer's Disease, 2014)
“Also recorded” adds a separate entry of the source. Like-named read-outs stand apart in the source and are kept apart here.

Experiments:
[1] = Rat time course PK/PD, oral dose, indirect response model; assay type: in vivo; conditions: female, Sprague-Dawley, plasma
Method: (§1) Figure 8 Analysis of the PK/PD relationship for BMS-869780 in rats and mice. Rats were dosed orally with BMS-869780 at 10 mg/kg, and triple transgenic mice were orally dosed at 30 mg/kg and 100 mg/kg. Additional groups of rats and mice were dosed with vehicle alone. Brain and plasma were harvested at 3, 5, 8, 16, and 24 hours after dosing for determination of brain Aβ1-42 and plasma BMS-869780 concentration. Group sizes were 5 rats or 4 mice. Whiskers represent standard error. […] The data were fit to a one-compartment PK model and the predicted plasma BMS-869780 concentrations are shown for mouse (solid lines) and rat (broken line). […] The data were fitted using the indirect pharmacodynamic response model and predicted values are shown (solid lines). (c) Brain Aβ1-42 levels were determined for the rats dosed with BMS-869780 at 10 mg/kg (▼) or vehicle alone (●). The data were fitted using the indirect pharmacodynamic response model and predicted values are shown (dashed line). (d) Brain Aβ1-40 levels determined in the same rats as illustrated in (c).
(§2) All experimental procedures with animals followed National Institutes of Health guidelines and were authorized by and in compliance with policies of the Bristol-Myers Squibb Animal Use and Care Committee. Mice and rats were housed with a 6:00 AM to 6:00 PM light/dark cycle and allowed free access to food and water. For 3xTg mice, BMS-869780 was dosed in three-month-old females by oral gavage at 6 mL/kg in vehicle consisting of 84% polyethylene glycol average molecular weight of 400 (PEG-400), 15% EtOH, and 1% Tween-80 (w/w/w). The compound was dissolved in EtOH and then diluted with PEG-400 and Tween, after which the vial was sealed, vortexed, and sonicated at 56°C for 1 hour. Animals were euthanized by asphyxiation in CO2. Blood was collected by cardiac puncture and placed into ethylene-diaminetetraacetic acid microtainer tubes for the preparation of plasma. The cerebellum was collected for the determination of compound concentration, and the remaining brain was separated into left and right halves before freezing in liquid nitrogen. For the rat time course study, 8- to 12-week-old female Sprague-Dawley rats were obtained from Charles River Laboratories (Wilmington, MA), BMS-869780 was dosed orally at 4 mL/kg, and brain and plasma samples were collected as described for the 3xTg mice. For the four day repeat dose rat study, BMS-869780 was given by oral gavage in vehicle consisting of PEG-400, PEG-200, D-α-tocopheryl polyethylene glycol succinate, Solutol HS 15, in the ratio 80 : 10 : 5 : 5 (w/w/w/w). Methods for the pharmacokinetics studies in rat, dog, and monkey are described below.
(§3) The data generated in the mouse and rat time course experiments were analyzed sequentially by nonlinear regression (WinNonlin Pharsight Corporation, Mountain View, CA). The pharmacokinetic data were best described by a 1-compartment linear model with first-order absorption and elimination. Subsequently, the pharmacodynamic parameters were estimated from the BMS-869780 plasma concentrations and the observed reductions of brain Aβ1-42 or Aβ1-40 by fitting to the equation for inhibition of synthesis. The goodness-of-fit was determined by visual inspection, Akaike Information Criterion, Schwartz Criterion, examination of the residuals and the coefficient of variation of the parameter estimates.

brain Aβ1-42 = assay: as above; assay type: in vivo; conditions: for IC50: po
Method: as §1, §2, §3

[2] = Plasma exposure in rat 4-day oral dosing experiment; assay type: in vivo; conditions: for AUC(0-t): read-out: AUC (0–24 h); for concentration at 4 day: oral, read-out: Terminal concentration day 4
Method: as §2
(§4) As a preliminary evaluation of safety in vivo, male and female rats were given 10, 30, and 100 mg/kg BMS-869780 orally once daily for 4 days. Endpoints included brain Aβ1-42, as described above (Figures 7(d) and 7(e)), plasma PK on day 1 and day 3 (Table 4), and histopathology for duodenum, liver, and kidney.

[3] = tested on: duodenum, liver, and kidney; assay: Histopathology in rat 4-day oral dosing experiment; assay type: in vivo
Method: Determination of IC50 values for inhibition of secreted alkaline phosphatase (SEAP) was carried out using an H4 cell line stably expressing SEAP. Cells were treated overnight with compounds in 384-well format, and SEAP accumulation in the culture media was quantified using a chemiluminescence substrate. The pregnane-X-receptor transactivation assay (PXR-TA) was based on the methods of Goodwin et al. as described previously. In the 4-day rat study with BMS-869780, tissues were fixed in 10% neutral buffered formalin, embedded in paraffin, sectioned, stained with hematoxylin and eosin, and examined by light microscopy.
as §4

[4] = Plasma protein bound fraction, mouse; assay type: in vitro ADME
[5] = Rat 10 mg/kg PO solution (observed 0–24 hours)
[6] = female, rat, plasma, po, 10 mg/kg, Female, Day 1
[7] = female, rat, plasma, po, 10 mg/kg, Female, Day 3
[8] = female, rat, plasma, po, 30 mg/kg, Female, Day 1
[9] = female, rat, plasma, po, 30 mg/kg, Female, Day 3
[10] = female, rat, plasma, po, 100 mg/kg, Female, Day 1
[11] = female, rat, plasma, po, 100 mg/kg, Female, Day 3
[12] = male, rat, plasma, po, 10 mg/kg, Male, Day 1
[13] = male, rat, plasma, po, 10 mg/kg, Male, Day 3
[14] = male, rat, plasma, po, 30 mg/kg, Male, Day 1
[15] = male, rat, plasma, po, 30 mg/kg, Male, Day 3
[16] = male, rat, plasma, po, 100 mg/kg, Male, Day 1
[17] = male, rat, plasma, po, 100 mg/kg, Male, Day 3

SMILES: COc1cc(Nc2nc3n(n2)CCCC[C@H]3c2ccc(F)cc2)ccc1-n1cnc(Cl)c1 [BMS-869780]
- k el ([1]; oral, 10 mg/kg, rat, 1-compartment PK model): 2.78e-05 s⁻¹
- AUC(0-t) [1, 5]: 46.3 µM·h
- Brain Aβ ABEC 24 hr Aβ1-40 (brain Aβ1-42; [5]): 46.1%
- Brain Aβ ABEC 24 hr Aβ1-42 (brain Aβ1-42; [5]): 47.0%
- IC50 (brain Aβ1-42; Rattus norvegicus, read-out: in vivo plasma IC50 for brain Aβ1-42): 1900 nM
- IC50 (brain Aβ1-42; rat, PD model, read-out: IC50 (plasma concentration required for 50% inhibition of Aβ production)): 1890 nM
- V/F (brain Aβ1-42; rat): 1.94 L/kg
- in vivo IC50 (corrected for protein binding) relative to in vitro IC50 for Aβ1-42 (brain Aβ1-42; rat and 3xTg mouse, M146V allele taken into account for mouse): ≤ 2 fold
- Ka1 (10 mg/kg) (brain Aβ1-42; rat, 10 mg/kg oral): 0.19 h⁻¹
- K in (brain Aβ1-42; rat, calculated): 48 %/h
- K OUT (brain Aβ1-42; rat, rate constant for degradation of Aβ): 0.48 h⁻¹
- Terminal concentration day 4 ([2]; 100 mg/kg, Female): 13.7 (±0.9) μM
- AUC (0–24 h) ([2]; 100 mg/kg, Female, Day 3): 316.4 (±77.0) μM·h
- Terminal concentration day 4 ([2]; 100 mg/kg, Male): 9.2 (±3.2) μM
- change of exposure on repeat dosing ([2]; day 1 versus day 3): no loss of exposure between day 1 and day 3
- Cmax [2, 6]: 2.9 µM
- Tmax [2, 6]: 7 h
- AUC(0-t) [2, 6]: 41 µM·h
- Cmax [2, 7]: 2.6 µM
- Tmax [2, 7]: 5 h
- AUC(0-t) [2, 7]: 25 µM·h
- Cmax [2, 8]: 8.2 µM
- Tmax [2, 8]: 5 h
- AUC(0-t) [2, 8]: 152 µM·h
- Cmax [2, 9]: 14.4 µM
- Tmax [2, 9]: 3 h
- AUC(0-t) [2, 9]: 255 µM·h
- Cmax [2, 10]: 10.6 µM
- Tmax [2, 10]: 24 h
- AUC(0-t) [2, 10]: 206 µM·h
- Cmax [2, 11]: 15.5 µM
- Tmax [2, 11]: 4 h
- AUC(0-t) [2, 11]: 316 µM·h
- exposures achieved ([2]; highest dose of 100 mg/kg): > 200 µM·h
- Cmax [2, 12]: 2 µM
- Tmax [2, 12]: 5 h
- AUC(0-t) [2, 12]: 20.2 µM·h
- Cmax [2, 13]: 1.9 µM
- Tmax [2, 13]: 5 h
- AUC(0-t) [2, 13]: 17.5 µM·h
- Cmax [2, 14]: 6.1 µM
- Tmax [2, 14]: 8 h
- AUC(0-t) [2, 14]: 95.2 µM·h
- Cmax [2, 15]: 10.4 µM
- Tmax [2, 15]: 3 h
- AUC(0-t) [2, 15]: 129 µM·h
- Cmax [2, 16]: 7.7 µM
- Tmax [2, 16]: 19 h
- AUC(0-t) [2, 16]: 168 µM·h
- Cmax [2, 17]: 13.2 µM
- Tmax [2, 17]: 7 h
- AUC(0-t) [2, 17]: 217 µM·h
- concentration at 4 day ([2]; rat, plasma, 10 mg/kg, Female): 3 µM
- concentration at 4 day ([2]; rat, plasma, 10 mg/kg, Male): 2.4 µM
- concentration at 4 day ([2]; rat, plasma, 30 mg/kg, Female): 12 µM
- concentration at 4 day ([2]; rat, plasma, 30 mg/kg, Male): 8.9 µM
- AUC ([2]; rat, plasma, po, four daily doses of 10 mg/kg): 17.5 µM·h
- duodenum and kidney histology ([3]; 10, 30 and 100 mg/kg orally once daily for 4 days): unchanged at all dose levels
- liver histology ([3]; at all doses (10, 30, 100 mg/kg once daily for 4 days)): macro- and microvesicular vacuolar degeneration
- separation of hepatotoxicity from Aβ1-42 lowering exposure benchmarks ([3]; lipidosis after four daily doses of 10 mg/kg): no separation of hepatotoxicity
- Notch-related effect in duodenum ([3]; up to 100 mg/kg once daily for 4 days): no Notch-related effect on differentiation in the duodenum; also recorded: did not cause any histological change in duodenum
- protein bound fraction [4]: 99.6%
